Structures are written as SMILES.

A short description of this data set: RP, Thermo Scientific Acclaim RSLC 120 C18, 100 × 2.1 mm, 2.2 µm, 30 °C, 0.2 mL/min, estimated dead time 1.1 min; A: 90% water + 10% methanol + 0.01% formic acid + 5 mM ammonium formate, pH 3.61; B: methanol + 0.01% formic acid + 5 mM ammonium formate, pH 3.61; gradient (min/%B) 0/1 1/1 2/39 13/99.9 15/99.9 15.1/1 20.1/1. To be noted: stereoisomer not certain.
Regarding `CC(C)([CH2][Sn+]([CH2]C(C)(C)c1ccccc1)[CH2]C(C)(C)c1ccccc1)c1ccccc1` [Fenbutatin Oxide Fragm 519], the LC retention time was 14.5 min.
For `CCOP(=O)(SC(C)CC)N1CCSC1=O` (configuration not stated) [Fosthiazate] the value was 7.73 min.
For `COc1ccc2[nH]c(C)c(CCN(C)C)c2c1` [MeO-TMT (5-)] the value was 4.19 min; for `CCC1(c2ccccc2)C(=O)NCNC1=O` [Primidone], 5.29 min; for `CC1COC(=O)c2cc3c(cc21)C(C)(C)C(C)C3(C)C` (configuration not stated) [Galaxolidone], 12 min.
With `O=C(C1CCCCC1)N1CC(=O)N2CCc3ccccc3C2C1` (configuration not stated) [Praziquantel], the LC retention time was 9.32 min.
Next, `CCC(=O)C1C(=O)CC(C(=O)O)CC1=O` (configuration not stated) [Prohexadione]: 5.63 min; `OC(Cc1ccccc1Cl)(Cn1cncn1)C1(Cl)CC1` (configuration not stated) [Prothioconazole-desethio]: 10.5 min; `COP(=S)(OC)Oc1c(Cl)cc(C)cc1Cl` [Tolclofos-methyl]: 11.4 min.
Next, `CCCCNC(=O)NS(=O)(=O)c1ccc(N)cc1` [Carbutamide]: 5.36 min; `CCC(=O)OC1(C(=O)SCF)C(C)CC2C3CC(F)C4=CC(=O)C=CC4(C)C3(F)C(O)CC21C` (configuration not stated) [Fluticasone propionate]: 10.7 min.
For `CCC(=O)OC1(C(=O)CCl)C(C)CC2C3CCC4=CC(=O)C=CC4(C)C3(F)C(O)CC21C` (configuration not stated) [Clobetasol propionate] the value was 10.6 min.
Consider `CC12CCC3=C4CCC(=O)C=C4CCC3C1CCC2(O)CC#N` (configuration not stated) [Dienogest], for which the LC retention time is 8.09 min.
As to `CC(C)Nc1nc(Cl)nc(NC(C)C)n1` [Propazine], the LC retention time is 9.16 min.
For `COc1ccc2[nH]cc(CCN(C(C)C)C(C)C)c2c1` [MeO-DIPT (5-)] the value was 4.81 min.
Next, `Nc1ccc(S(=O)(=O)c2ccc(N)cc2)cc1` [Dapsone]: 4.13 min; `COc1ccc(CC(C)NCC(O)c2ccc(O)c(NC=O)c2)cc1` (configuration not stated) [Formoterol]: 4.79 min; `CN1CCN(c2c(F)cc3c(=O)c(C(=O)O)cn4c3c2OCN4C)CC1` [Marbofloxacin]: 4.18 min.
Next, `Cc1ccccc1N1CCN(CCc2nnc3n2CCCC3)CC1` [Dapiprazole]: 5.66 min; `CCCCOCCOCCOCc1cc2c(cc1CCC)OCO2` [Piperonyl butoxide]: 12.4 min; `CCOC(=O)CSc1nc(C(C)(C)C)nn1C(=O)N(C)C` [Triazamate]: 6.38 min.
For `Clc1ccccc1-c1nnc(-c2ccccc2Cl)nn1` [Clofentezine], the LC retention time was 11.5 min.
For the molecule `CNC(=O)ON=CC(C)(C)SC` [Aldicarb], the LC retention time was 6.17 min.
Take `C=CC1(C)CC(OC(=O)CSCCN(CC)CC)C2(C)C(C)CCC3(CCC(=O)C32)C(C)C1O` (configuration not stated) [Tiamulin]: the LC retention time was 7.71 min.
Next, `CC(=O)c1cc2cccc(OCC(O)CNC(C)C)c2o1` (configuration not stated) [Befunolol]: 4.93 min; `COP(=S)(OC)SCN1C(=O)c2ccccc2C1=O` [Phosmet]: 8.94 min.
For `Nc1ccc(N=Nc2ccccc2)c(N)n1` [Phenazopyridine] the value was 8.49 min; for `C#CC[N+](C)([O-])C(C)Cc1ccccc1` (configuration not stated) [Deprenyl-N-oxide], 5.33 min.
Next, `CCNC(C)C(O)c1ccc(O)c(O)c1` (configuration not stated) [Dioxethedrin]: 1.99 min; `CNc1cnn(-c2cccc(C(F)(F)F)c2)c(=O)c1Cl` [Norflurazon]: 8.51 min; `CCCCCCC(C)(C)c1cc(O)c2c(c1)OC(C)(C)C1CC=C(CO)CC21` (configuration not stated) [HU-210]: 13.5 min.
Regarding `CC1=C(C)S(=O)(=O)CCS1(=O)=O` [Dimethipin], the LC retention time was 3.73 min.
Next, `C#CC1(O)CCC2C3CCc4cc(O)ccc4C3CCC21C` (configuration not stated) [EE2 - Ethinyl estradiol]: 9.46 min; `CCCC(C(=O)c1ccc2c(c1)OCO2)N1CCCC1` (configuration not stated) [MDPV]: 5.18 min.
Next, `CCn1cc(C(=O)O)c(=O)c2cc3c(cc21)OCO3` [Oxolinic acid]: 6.03 min; `COc1ccc(CC2c3cc(OC)c(OC)cc3CCN2C)cc1OC` (configuration not stated) [Laudanosine]: 4.71 min; `CN(C)CCc1c[nH]c2ccc(CC3COC(=O)N3)cc12` (configuration not stated) [Zolmitriptan]: 3.61 min.
Take `CC(=O)C1(O)CCC2C3C=C(Cl)C4=CC(=O)C5CC5C4(C)C3CCC21C` (configuration not stated) [Cyproterone]: the LC retention time is 10.1 min.
Next, `O=C(CCCN1CCC(n2c(=O)[nH]c3ccccc32)CC1)c1ccc(F)cc1` [Benperidol]: 5.96 min; `CCN(CC)CCCOC(=O)C1(c2ccccc2)CC2CCC1C2` (configuration not stated) [Bornaprine]: 8.54 min; `CCCCC(O)(Cn1cncn1)c1ccc(Cl)cc1Cl` (configuration not stated) [Hexaconazole]: 11.2 min.
Next, `COc1cc(OC)nc(NC(=O)NS(=O)(=O)c2c(Cl)nc3ccccn23)n1` [Imazosulfuron]: 8.78 min; `NC(N)=Nc1nc(CSCCC(N)=NS(N)(=O)=O)cs1` [Famotidine]: 3.24 min; `COC(=O)c1ccccc1S(=O)(=O)NC(=O)Nc1nc(C)nc(OC)n1` [Metsulfuron-methyl]: 6.31 min.
For `CCNc1nc(Cl)nc(NC(C)(C)C)n1` [Terbuthylazine] the value was 9.36 min; for `COC(=O)Nc1ccc(Cl)c(Cl)c1` [SWEP.MCC], 9.68 min; for `CCC(=O)C(CCN(C)C)(c1ccccc1)c1ccccc1` [Methadone-Nor], 7.68 min.
For the molecule `COc1cc(OC)nc(Oc2cccc(Oc3nc(OC)cc(OC)n3)c2C(=O)O)n1` [Bispyribac], the LC retention time is 8.86 min.
For `CCCCCCCCCCCCCC[N+](C)(C)[O-]` [N,N-Dimethyltetradecylamine-N-oxide] the value was 12.6 min; for `Cc1ccc(C(CCN(C)C)c2ccccc2)cc1` (configuration not stated) [Tolpropamine], 7.47 min.
Take `CC(=O)N(CC(O)CN(C(C)=O)c1c(I)c(C(=O)NCC(O)CO)c(I)c(C(=O)NCC(O)CO)c1I)c1c(I)c(C(=O)NCC(O)CO)c(I)c(C(=O)NCC(O)CO)c1I` (configuration not stated) [Iodixanol]: the LC retention time is 3.56 min.
Regarding `COC(=O)C1=C(C#N)NC(C)=C(C(=O)OC(C)C)C1c1cccc([N+](=O)[O-])c1` (configuration not stated) [Nilvadipine], the LC retention time is 10.3 min.
Next, `O=C1C(CCS(=O)c2ccccc2)C(=O)N(c2ccccc2)N1c1ccccc1` (configuration not stated) [Sulfinpyrazone]: 7.94 min; `CCCCC(CC)CN1C(=O)C2C3C=CC(C3)C2C1=O` (configuration not stated) [MGK-264]: 11.6 min; `C=CCN(CC=C)C(=O)CCl` [Allidochlor]: 6.37 min.
For `Cc1cnc2c(C(=O)O)c(Cl)ccc2c1` [Quinmerac] the value was 4.75 min; for `CCOc1ccc2c3c1OC1C(O)C=CC4C(C2)N(C)CCC341` (configuration not stated) [Morphine-Ethyl], 4.08 min.

Values taken from the RepoRT retention time repository (doi:10.1021/acs.analchem.2c02893).
